Measurements from publication PMC11758220, “Identification of a Privileged Scaffold for Inhibition of Sterol Transport Proteins through the Synthesis and Ring Distortion of Diverse, Pseudo-Natural Products” (ACS Central Science, 2025).

Biological target: T1, ORP2 (Homo sapiens, UniProt Q9H1P3)
T1 construct: ORP2(49-480); host or cells: E. coli BL21(DE3)
T1 sequence (Q9H1P3 49-480): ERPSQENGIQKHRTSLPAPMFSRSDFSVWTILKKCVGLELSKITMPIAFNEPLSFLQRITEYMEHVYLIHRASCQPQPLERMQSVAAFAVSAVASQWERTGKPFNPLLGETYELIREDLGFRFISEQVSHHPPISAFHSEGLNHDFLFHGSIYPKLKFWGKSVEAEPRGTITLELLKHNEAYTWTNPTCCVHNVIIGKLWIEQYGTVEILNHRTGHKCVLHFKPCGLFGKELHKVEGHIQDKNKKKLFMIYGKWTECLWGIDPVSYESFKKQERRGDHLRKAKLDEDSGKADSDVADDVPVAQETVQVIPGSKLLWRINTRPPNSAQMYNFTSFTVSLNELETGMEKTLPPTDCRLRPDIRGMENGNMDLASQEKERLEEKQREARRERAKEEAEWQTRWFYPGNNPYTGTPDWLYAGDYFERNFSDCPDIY
Experiment: Effect on intrinsic protein fluorescence, ORP2
Settings: protein 1 µM, excitation 280 nm
Experimental: Effect of spirooxepinoindoles on intrinsic protein fluorescence
Figure S12: Spirooxepinoindoles 21a and 15f affect intrinsic protein fluorescence in dose-dependent fashion:
Respective proteins (1 µM) were incubated with the compounds at different doses. Proteins were excited at 280 ± 10 nm and fluorescence spectra were measured from 315 ± 20 nm to 600 ± 20 nm with a step size of 2 nm. A) STARD1 and 21a. B) ORP1 and 21a. C) ORP2 and 21a. D) ORP2 and 15f.
(1 picture or pasted object on this page, not shown here)
Superdex 75 pg (Cytiva) using an ÄKTA Explorer (Cytiva) in buffer containing 10 mM Tris -HCl, pH 8, 150 mM NaCl, 5 % glycerol and 2 mM DTT.
Fluorescence intensity and polarisation
Fluorescence intensity and polarisation (FP) experiments were performed in a buffer containing 20 mM HEPES pH 7.5, 300 mM NaCl, 0.01 %v/v Tween-20, 0.5% glycerol and 2 mM DTT in a final volume of 30 µl in black, flat-bottom, non-binding 384-well plates (Corning). All compounds were dispensed using the LabCyte Echo 550 Liquid handler. […] For competition experiments, 20 nM 22-NBD-cholesterol or 80 nM 25-NBD-cholesterol was mixed with protein and incubated with desired concentrations of screening compounds (Table S4) The fluorescence polarisation signal was measured using a Spark Cyto multimode microplate reader (Tecan) with filters set at 485 ± 20 nm for excitation and at 535 ± 20 nm for emission. […]

COc1ccc2c(c1)[C@@]13CC[C@@H]4C[C@@H](CC[C@@]41C)OC3=N2 [Compound 15f]
Quenching of intrinsic fluorescence of ORP2: quenches the ORP2 protein fluorescence in a dose-dependent manner

C[C@]12CC[C@@H]3C[C@H]1CC[C@@]21C(=Nc2ccc(-c4ccccc4)cc21)O3 [Compound 21a]
Quenching of intrinsic fluorescence of ORP2: dose-dependently quenches
